Laboratory results: patent publication US20180071354A1, “SELECTIVE BREEDING METHOD OF ANTITUMOR/ANTICANCER CAMELLIA SINENSIS STRAIN, AND TEA PRODUCT OF SUCH STRAIN” (FUJIAN AGRICULTURE AND FORESTRY UNIVERSITY, priority 2015, published 2018)

Tests used:
[1] = test system: HepG2 cells (human liver cancer cells) transplanted tumor; test: In vivo antitumor testing, first experiment (Animal Model 1); design: species or system BALB/c nude mice; details: 35 days, 5-fluorouracil 15.0 mg/kg per day intra-abdominal injection, Tea Product 1 0.6 mL of 10% per day intragastric gavage
Protocol: The establishment of Animal Model 1 is addressed as follows. […] SCXK (Hu) 2012-0002) were purchased from Shanghai Silaike Experiment Animal Co., Ltd and were acclimatized for one week. HepG2 cells (human liver cancer cells) mentioned in section C of Example 3 were cultivated in the corresponding complete medium (see Table 3) supplemented with 100 μg/mL penicillin and 100 μg/mL streptomycin in an incubator (37° C., 100% relative humidity, 5% CO2). When adherent cancer/tumor cells reached 97% confluence, the medium was removed. Cell detachment was conducted using trypsin, and the detached cells were transferred to a centrifuge tube. Centrifugation was conducted, and the resulting supernatant was removed. Staining was performed with a 0.4% trypan blue, and it was determined that the cell viability was higher than 97%. A cell suspension having a concentration of […] was prepared using PBS. 0.2 mL of the cell suspension was subcutaneously injected into each of the nude mice at a position posterior to the axilla. […] Tea Product 1 and Conventional Tea Product obtained in section A of Example 3, as well as 5-fluorouracil mentioned in section B of Example 3, were examined for their in vivo antitumor activity. […] In all the three experiments above, each of the nude mice was sacrificed 24 hours after the termination of the treatment. The tumor was collected and weighed. The antitumor effect of a respective test substance was evaluated by virtue of the percent tumor growth inhibition (%), which was calculated using the following Equation II: E=[(F−G)/(F)]×100% (I) • E=percent tumor growth inhibition (%) • F=tumor weight of control group • G=tumor weight of respective test substance group The experimental data are expressed as mean±SEM (standard error of the mean). The experimental data were subjected to one-way analysis of variance (ANOVA) using SPSS (Statistical Package for Social Sciences) software package version 11.5, such that the difference between the groups could be evaluated. The data regarding the tumor weights of the groups were subjected to t-test. […]

[2] = test system: HepG2 transplanted tumor (inoculated tumor tissue pieces); test: In vivo antitumor testing, second and third experiments (Animal Model 2); design: species or system BALB/c nude mice; details: second experiment
Protocol: The establishment of Animal Model 2 is described below. Male BALB/c nude mice (5 to 6 weeks of age, a body weight of 15 to 16 g, certificate number: SCXK (Hu) 2012-0002) were purchased from Shanghai Silaike Experiment Animal Co., Ltd and were acclimatized for one week. A cell suspension of HepG2 cells having a concentration of 1×10^7 cells/mL was prepared using the same method as that for preparing the cell suspension for Animal Model 1. 0.2 mL of the cell suspension was subcutaneously injected into the back of each of 5 nude mice. […] Tea Product 1 and Conventional Tea Product obtained in section A of Example 3, as well as 5-fluorouracil mentioned in section B of Example 3, were examined for their in vivo antitumor activity. […] In the third experiment, nude mice of Animal Model 2 were divided into three groups, i.e. a control group (n=11), a Tea Product 1 group (n=11), and a Conventional Tea Product group (n=8). […] In all the three experiments above, each of the nude mice was sacrificed 24 hours after the termination of the treatment. The tumor was collected and weighed. The antitumor effect of a respective test substance was evaluated by virtue of the percent tumor growth inhibition (%), which was calculated using the following Equation II: E=[(F−G)/(F)]×100% (I) • E=percent tumor growth inhibition (%) • F=tumor weight of control group • G=tumor weight of respective test substance group The experimental data are expressed as mean±SEM (standard error of the mean). The experimental data were subjected to one-way analysis of variance (ANOVA) using SPSS (Statistical Package for Social Sciences) software package version 11.5, such that the difference between the groups could be evaluated. The data regarding the tumor weights of the groups were subjected to t-test. Statistical significance is indicated by p<0.05.

[3] = 35 days, 5-fluorouracil 15.0 mg/kg per day intra-abdominal injection, Tea Product 1 0.6 mL of 10% per day intragastric gavage

## O=c1[nH]cc(F)c(=O)[nH]1 [5-fluorouracil]
[1]
  Body weight After treatment: 72.90 g
  Percent tumor growth inhibition: 80.84%
  Tumor weight: 0.08 g
[2]; Animal Model 2, baseline
  Body weight Before treatment: 17.22 g
[2]; [3]
  Body weight After treatment: 24.32 g
  Percent tumor growth inhibition: 48.96%
  Tumor weight: 0.034 g
